Usually Kd stands for the constant that tells how readily two partners part at equilibrium.

Experiment [1] concerns CD8+ T cells. Nature of the experiment: In vitro priming of CD8+ T cells with pMHC/anti-CD28 coated beads, tetramer readout. It counts as cell-based, human. As to conditions: for Positive donors/donors tested / Positive wells/wells tested: healthy donors, CD8+ cells stimulated with high density beads. On the procedure: To perform in vitro stimulations by artificial antigen presenting cells (aAPC) loaded with peptide-MHC complex (pMHC) and anti-CD28 antibody, first we isolated PBMCs (peripheral blood mononuclear cells) from fresh HLA-A*02+ buffy coats by using standard density gradient separation medium (PAA, Cölbe, Germany). Buffy coats were either obtained from the Blood Bank Tübingen or from the Katharinenhospital Stuttgart. Isolated PBMCs were incubated overnight in T-cell medium (TCM) for human in vitro priming consisting of RPMI-Glutamax (Invitrogen, Karlsruhe, Germany) supplemented with 10% heat inactivated human AB serum (PAA, Cölbe, Germany), 100 U/ml Penicillin/100 μg/ml Streptomycin (Cambrex, Verviers, Belgium), 1 mM sodium pyruvate (CC Pro, Neustadt, Germany) and 20 μg/ml Gentamycin (Cambrex). CD8+ lymphocytes were isolated using the CD8+ MACS positive selection kit (Miltenyi, Bergisch Gladbach, Germany) according to the manufacturer's instructions.
800.000 beads/200 μl were coated in 96-well plates in the presence of 600 ng biotin anti-CD28 plus 200 ng relevant biotin-pMHC (high density beads) or 2 ng relevant plus 200 ng irrelevant (pMHC library) MHC (low density beads). Stimulations were initiated in 96-well plates by co-incubating 1×10^6 CD8+ T cells with 2×10^5 washed coated beads in 200 μl TCM supplemented with 5 ng/ml IL-12 (PromoCell) for 3-4 days at 37° C. Half of the medium was then exchanged by fresh TCM supplemented with 80 U/ml IL-2 and incubating was continued for 3-4 days at 37° C. This stimulation cycle was performed for a total of three times.
Results shown have been obtained by stimulation of CD8+ cells with high density beads. As different human serum lots may highly affect the immunogenicity results, only assays in which one and the same serum lot was used, were evaluated together.

The subject of experiment [2] is HLA-DR broad antigens (HLA-DR1 to DR7). Nature of the experiment: ProImmune REVEAL MHC:peptide binding assay. As to conditions: relative to pass/fail control; MET-005 tested as two overlapping 15-mers. More on the design: species or system human. The protocol:
The ProImmune REVEAL™ technology employs in vitro HLA-DR assembly assays to determine the on-rates for the MHC:peptide complex as one major determinant of the binding constant of individual peptides. The assay was performed by ProImmune (Oxford, UK). At a fixed time point, the amount of intact MHC:peptide complexes is measured and compared with the amount for a pass/fail control (relative weak binder). A strong, promiscuous HLA-DR binder is included as positive control. Values indicate amount of binding for the individual peptides and HLA-DR molecules relative to the pass/fail control.
In this assay, binding was compared to that of a pass/fail control binder, and to a positive control peptide for each HLA-DR antigen.

For a further experiment, the target named is HLA-A*0201 (Homo sapiens, UniProt P04439, /I218V/L300P/L318F/N151K/N90K/P208A/P217A/Q86G/Q94H/R138H/R169H/T345S). Nature of the experiment: ELISA-based MHC refolding assay. Type of experiment: binding. The protocol: The amount of de novo-folded HLA/peptide complexes was determined by a quantitative ELISA. Dissociation constants (KD values) were calculated using a standard curve recorded from dilutions of a calibrant HLA/peptide complex.

Another experiment concerns anti-survivin T cells. Nature of the experiment: Phase I/II vaccination study, T-cell response to Survivin peptide (IFN-g ELISPOT, +/-ICS). Type of experiment: in vivo, human.
The test system of experiment [3] is CD8+ T cells. Nature of the experiment: In vitro priming of CD8+ T cells with pMHC/anti-CD28 coated beads, tetramer readout. Type of experiment: cell-based, human. As to conditions: small number of glioblastoma patients.
For experiment [4] the following is noted: out of 18 patients treated, recurrent GBM, intermediate results; cited from earlier work.

Where no end group is shown, it is not given here.

In the experiment on CD8+ T cells [1], “KVFAGIPTV (listed as Homo sapiens) [PTP-005]” came in with a Positive donors/donors tested of 100% and a Positive wells/wells tested of 52%.
The like results for “KIQEILTQV (listed as Homo sapiens) [IGF2BP3-001]” were, in that order, 50% and 21%.
As to “AMTQLLAGV (listed as Homo sapiens) [TNC-001]”, in the experiment on CD8+ T cells [1], the Positive donors/donors tested is 60% and the Positive wells/wells tested is on record as 30%.
Take “TFSYVDPVITSISPKYG (listed as Homo sapiens) [MET-005, MET-derived elongated HLA class I TUMAP]”: the “HLA-DR antigens for which in vitro binding was obtained” value in experiment [2] is “HLA-DR11”. In addition, the “HLA class I binding of the full-length elongated peptide” value in the experiment with HLA-A*0201 is given as “does not possess HLA class I binding capacities”.
Regarding “TLGEFLKLDRERAKN (listed as Homo sapiens) [BIR-002]”, in the experiment with anti-survivin T cells (among the 16 reacting patients), the “patients with induction of an anti-survivin T-cell response upon vaccination” value stood at 12 and the “patients with pre existing anti-Survivin T cells” value was found to be 2. Further, the “immunogenicity in clinical trial in prostate cancer patients with different HLA-DR alleles” value in the experiment with anti-survivin T cells (in vivo) is on record as “broad immunogenicity”. Also, in the experiment with anti-survivin T cells (of the 19 patients vaccinated, prostate carcinoma), the “patients who reacted to the peptide (IFN-g ELISPOT, +/-ICS)” value is on record as 16. Moreover, the “HLA-DR antigens for which in vitro binding was obtained” value in experiment [2] was “HLA-DR1, 3, 4 and 11”.
In the experiment with CD8+ T cells [1], “AIIDGVESV (listed as Homo sapiens) [PTP-003]” came in with a Positive donors/donors tested of 50% and a Positive wells/wells tested of 17%.
For “LTFGDVVAV (listed as Homo sapiens) [FABP7-001]”, in that order: 100% and 27%.
On to “SLWAGVVVL (listed as Homo sapiens) [CHI-001]”, for which, in the experiment on CD8+ T cells [1], the Positive donors/donors tested is given as 100% and the Positive wells/wells tested was determined as 63%. For the same compound, the “in vitro immunogenicity in glioblastoma patients” value (“in vitro immunogenicity” below) in the experiment with CD8+ T cells [3] is on record as “immunogenic to a similar extent compared with healthy donors”.
On to “ALWAWPSEL (listed as Homo sapiens) [BCA-002]”, for which, in the experiment with CD8+ T cells [1], the “immunogenicity in comparison to another BCAN-derived peptide (IMA-BCA-001)” value is recorded as “very immunogenic”, the Positive donors/donors tested was 75% and the Positive wells/wells tested came to 35%. In the experiment with CD8+ T cells [3], the “in vitro immunogenicity” value is recorded as “immunogenic to a similar extent compared with healthy donors”.
With YVDPVITSI [MET-001], in the experiment with CD8+ T cells [1], the Positive donors/donors tested was determined as 67% and the Positive wells/wells tested came to 39%.
For “GLWHHQTEV (listed as Homo sapiens) [NRCAM-001]”, in that order: 86% and 39%.
As for “NLDTLMTYV (listed as Homo sapiens) [NLGN4X-001]”, in the experiment on CD8+ T cells [1], the Positive donors/donors tested was found to be 100% and the Positive wells/wells tested is listed as 62%. Also, in the experiment on CD8+ T cells [3], the “in vitro immunogenicity” value is reported as “immunogenic to a similar extent compared with healthy donors”.
Regarding `CSCC[C@H](NC(=O)[C@@H](N)[C@@H](C)O)C(=O)N[C@@H](CC(C)C)C(=O)N[C@@H](C)C(=O)N[C@@H](CCCNC(=N)N)C(=O)N[C@@H](CC(C)C)C(=O)N[C@@H](C)C(=O)N[C@@H](CO)C(=O)N[C@@H](C)C(=O)O` [CSP-001], in the experiment on CD8+ T cells [1], the Positive donors/donors tested turned out to be 100% and the Positive wells/wells tested amounted to 57%. Besides, the Kd at HLA-A*0201 (recombinant HLA-A*0201 with b2m, quantitative ELISA, read-out: Dissociation constant (KD) to HLA-A*0201) was determined as 2.05 nM.
Turning to “AMG102: human neutralizing antibody against HGF”, in experiment [4], the “patients with minor response” value is on record as 1 and the “patients with partial response” value is 1.

The values above are taken from US8895514B2, “Composition of tumor-associated peptides and related anti-cancer vaccine for the treatment of glioblastoma (GBM) and other cancers” (Immatics Biotechnologies GmbH, priority 2008, dated 2014).
